We go through 20 molecules from patent publication US20240043427A1 (Gilead Sciences, Inc., priority 2020, published 2024).

Assay [1] addresses T1, CD73 (Homo sapiens (Human), UniProt P21589). Description: MDA-MB-231 Cell Based CD73 Activity Assay (DMEM). To be noted: MDA-MB-231-GFP cells, DMEM medium with 10% human plasma, 200 uM AMP. How it is done: MDA-MB-231 Cell Based CD73 Activity Assay (DMEM) MDA-MB-231-GFP cells were seeded in 384-well plates (Greiner 781946) at a density of 3000 cells per well in 50 μL of DMEM medium with 10% HP (human plasma). Cells were plated into assay plate with compounds pre-spotted, for an overnight compound treatment. 50 uL of 400 uM AMP (final concentration will be 200 uM) was added using Bio-tek dispenser. Plates were incubated for 100 mins. […] The samples were analyzed using Rapid fire.

Assay [2] concerns the target T1, CD73. The class given is biochemical. The note with it: 1 mM NaH2PO4 in enzyme buffer, CD73 0.3 nM, AMP 15 uM.

T1 sequence (P21589 27-574): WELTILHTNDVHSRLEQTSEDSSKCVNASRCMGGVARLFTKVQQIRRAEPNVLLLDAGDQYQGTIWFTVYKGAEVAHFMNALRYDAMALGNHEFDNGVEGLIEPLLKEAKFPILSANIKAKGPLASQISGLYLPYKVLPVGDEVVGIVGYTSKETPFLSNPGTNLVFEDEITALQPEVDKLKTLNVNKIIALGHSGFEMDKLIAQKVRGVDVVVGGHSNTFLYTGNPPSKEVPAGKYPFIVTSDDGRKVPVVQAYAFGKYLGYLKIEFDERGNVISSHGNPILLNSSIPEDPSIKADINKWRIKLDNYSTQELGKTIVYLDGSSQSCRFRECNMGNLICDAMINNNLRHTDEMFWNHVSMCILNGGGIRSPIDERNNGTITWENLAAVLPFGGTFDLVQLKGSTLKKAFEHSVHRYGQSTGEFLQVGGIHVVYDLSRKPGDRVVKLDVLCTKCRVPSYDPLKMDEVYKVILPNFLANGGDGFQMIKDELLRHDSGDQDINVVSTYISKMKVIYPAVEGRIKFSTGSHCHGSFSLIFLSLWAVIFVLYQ

`O=c1[nH]cc(-c2cc([C@H]3C[C@@H]3c3ccc(OC(F)F)nc3)c3ncc(F)n3n2)c(=O)[nH]1` (racemic) [Example 121, 5-(8-((1S,2S)-2-(6-(difluoromethoxy)pyridin-3-yl)cyclopropyl)-3-fluoroimidazo[1,2-b]pyridazin-6-yl)pyrimidine-2,4(1H,3H)-dione and 5-(8-((1R,2R)-2-(6-(difluoromethoxy)pyridin-3-yl)cyclopropyl)-3-fluoroimidazo[1,2-b]pyridazin-6-yl)pyrimidine-2,4(1H,3H)-dione]: the midpoint of the response in assay [1], the EC50, lay at 19.7 nM. The half-maximal inhibitory concentration (IC50) in assay [2] amounted to 1.08 nM.
The corresponding values for `O=c1[nH]cc(-c2cc([C@H]3C[C@@H]3c3ccc4cnn(CC(F)F)c4c3)c3nccn3n2)c(=O)[nH]1` (racemic) [Example 123, 5-(8-((1S,2S)-2-(1-(2,2-difluoroethyl)-1H-indazol-6-yl)cyclopropyl)imidazo[1,2-b]pyridazin-6-yl)pyrimidine-2,4(1H,3H)-dione and 5-(8-((1R,2R)-2-(1-(2,2-difluoroethyl)-1H-indazol-6-yl)cyclopropyl)imidazo[1,2-b]pyridazin-6-yl)pyrimidine-2,4(1H,3H)-dione] are 0.37 nM and 0.69 nM.
In the same order, the values of `O=c1[nH]cc(-c2cc([C@H]3C[C@@H]3c3ccc(OC(F)F)cn3)c3nccn3n2)c(=O)[nH]1` (racemic) [Example 136, 5-(8-((1S,2S)-2-(5-(difluoromethoxy)pyridin-2-yl)cyclopropyl)imidazo[1,2-b]pyridazin-6-yl)pyrimidine-2,4(1H,3H)-dione and 5-(8-((1R,2R)-2-(5-(difluoromethoxy)pyridin-2-yl)cyclopropyl)imidazo[1,2-b]pyridazin-6-yl)pyrimidine-2,4(1H,3H)-dione] are 6.37 nM and 3.11 nM.
Molecule `O=c1[nH]cc(-c2cc([C@H]3C[C@@H]3c3ccc4cnc(C(F)(F)F)cc4c3)c3nccn3n2)c(=O)[nH]1` (racemic) [Example 138, 5-(8-((1S,2S)-2-(3-(trifluoromethyl)isoquinolin-6-yl)cyclopropyl)imidazo[1,2-b]pyridazin-6-yl)pyrimidine-2,4(1H,3H)-dione and 5-(8-((1R,2R)-2-(3-(trifluoromethyl)isoquinolin-6-yl)cyclopropyl)imidazo[1,2-b]pyridazin-6-yl)pyrimidine-2,4(1H,3H)-dione] gave an EC50 in assay [1] of 0.64 nM. In assay [2], this molecule gave an IC50 of 0.95 nM.
In the same order, the values of `O=c1[nH]cc(-c2cc([C@H]3C[C@@H]3c3cc(C(F)(F)F)c4ncccc4c3)c3nccn3n2)c(=O)[nH]1` (racemic) [Example 141, 5-(8-((1S,2S)-2-(8-(trifluoromethyl)quinolin-6-yl)cyclopropyl)imidazo[1,2-b]pyridazin-6-yl)pyrimidine-2,4(1H,3H)-dione and 5-(8-((1R,2R)-2-(8-(trifluoromethyl)quinolin-6-yl)cyclopropyl)imidazo[1,2-b]pyridazin-6-yl)pyrimidine-2,4(1H,3H)-dione] are 24.8 nM and 2.1 nM.
Molecule `O=c1[nH]cc(-c2cc([C@H]3C[C@@H]3c3ccc4nc(C(F)(F)F)ccc4c3)c3nccn3n2)c(=O)[nH]1` (racemic) [Example 142, 5-(8-((1S,2S)-2-(2-(trifluoromethyl)quinolin-6-yl)cyclopropyl)imidazo[1,2-b]pyridazin-6-yl)pyrimidine-2,4(1H,3H)-dione and 5-(8-((1R,2R)-2-(2-(trifluoromethyl)quinolin-6-yl)cyclopropyl)imidazo[1,2-b]pyridazin-6-yl)pyrimidine-2,4(1H,3H)-dione] registered an EC50 in assay [1] of 3.76 nM. For the same molecule, in assay [2], the IC50 stood at 0.96 nM.
In the case of `O=c1[nH]cc(-c2cc([C@H]3C[C@@H]3c3ccc(C(F)(F)F)cn3)c3nccn3n2)c(=O)[nH]1` (racemic) [Example 149, 5-(8-((1S,2S)-2-(5-(trifluoromethyl)pyridin-2-yl)cyclopropyl)imidazo[1,2-b]pyridazin-6-yl)pyrimidine-2,4(1H,3H)-dione and 5-(8-((1R,2R)-2-(5-(trifluoromethyl)pyridin-2-yl)cyclopropyl)imidazo[1,2-b]pyridazin-6-yl)pyrimidine-2,4(1H,3H)-dione], in assay [1], the EC50 is 7.61 nM. Besides, it took 3.34 nM to reach half-maximal inhibition in assay [2] (IC50).
In the same order, the values of `O=c1[nH]cc(-c2cc([C@H]3C[C@@H]3c3ccc(C(F)(F)F)nc3)c3nccn3n2)c(=O)[nH]1` (racemic) [Example 152, 5-(8-((1S,2S)-2-(6-(trifluoromethyl)pyridin-3-yl)cyclopropyl)imidazo[1,2-b]pyridazin-6-yl)pyrimidine-2,4(1H,3H)-dione and 5-(8-((1R,2R)-2-(6-(trifluoromethyl)pyridin-3-yl)cyclopropyl)imidazo[1,2-b]pyridazin-6-yl)pyrimidine-2,4(1H,3H)-dione] are 17.5 nM and 3.45 nM.
The corresponding values for `O=C(c1cn2nc(-c3c[nH]c(=O)[nH]c3=O)cc([C@H]3C[C@@H]3c3ccc(F)cc3)c2n1)N1CC(F)(F)C1` (racemic) [Example 198, 5-[2-(3,3-difluoroazetidine-1-carbonyl)-8-[(1S,2S)-2-(4-fluorophenyl)cyclopropyl]imidazo[1,2-b]pyridazin-6-yl]-1H-pyrimidine-2,4-dione] are 191 nM and 85.2 nM.
`O=C(c1cn2nc(-c3c[nH]c(=O)[nH]c3=O)cc([C@H]3C[C@@H]3c3ccc(F)cc3)c2n1)N1CCC(F)(F)C1` (racemic) [Example 199, 5-[2-(3,3-difluoropyrrolidine-1-carbonyl)-8-[(1S,2S)-2-(4-fluorophenyl)cyclopropyl]imidazo[1,2-b]pyridazin-6-yl]-1H-pyrimidine-2,4-dione]: it took 755 nM to reach a half-maximal effect in assay [1] (EC50). In assay [2], this molecule showed an IC50 of over 250 nM.
In the same order, the values of `O=c1[nH]cc(-c2cc([C@H]3C[C@@H]3c3ccc4onc(C(F)(F)F)c4c3)c3nccn3n2)c(=O)[nH]1` (racemic) [Example 327, 5-(8-((1S,2S)-2-(3-(trifluoromethyl)benzo[d]isoxazol-5-yl)cyclopropyl)imidazo[1,2-b]pyridazin-6-yl)pyrimidine-2,4(1H,3H)-dione] are 50 nM and 1.79 nM.
In the same order, the values of `N#Cc1ccc([C@H]2C[C@@H]2c2cc(-c3c[nH]c(=O)[nH]c3=O)nn3c(F)cnc23)cn1` (racemic) [Example 375, 5-((1S,2S)-2-(6-(2,4-dioxo-1,2,3,4-tetrahydropyrimidin-5-yl)-3-fluoroimidazo[1,2-b]pyridazin-8-yl)cyclopropyl)picolinonitrile] are 11.2 nM and 2.83 nM.
In the same order, the values of `O=C1N(CC(F)(F)F)c2cc([C@H]3C[C@@H]3c3cc(-c4c[nH]c(=O)[nH]c4=O)nn4ccnc34)ccc2C12CC2` (racemic) [Example 382, 5-(8-((1S,2S)-2-(2′-oxo-1′-(2,2,2-trifluoroethyl)spiro[cyclopropane-1,3′-indolin]-6′-yl)cyclopropyl)imidazo[1,2-b]pyridazin-6-yl)pyrimidine-2,4(1H,3H)-dione] are 0.13 nM and 1.63 nM.
In the case of `O=c1[nH]cc(-c2cc([C@H]3C[C@@H]3c3ccc4cnn(-c5ccc(C(F)(F)F)cn5)c4c3)c3nccn3n2)c(=O)[nH]1` (racemic) [Example 383, 5-(8-((1S,2S)-2-(1-(5-(trifluoromethyl)pyridin-2-yl)-1H-indazol-6-yl)cyclopropyl)imidazo[1,2-b]pyridazin-6-yl)pyrimidine-2,4(1H,3H)-dione], in assay [1], it took 49.3 nM to reach a half-maximal effect (EC50). Besides, 1.83 nM corresponded to half-maximal inhibition in assay [2] (IC50).
In the same order, the values of `CC(C)c1nn(CC(F)(F)F)c2cc([C@H]3C[C@@H]3c3cc(-c4c[nH]c(=O)[nH]c4=O)nn4ccnc34)ccc12` (racemic) [Example 396, 5-(8-((1S,2S)-2-(3-isopropyl-1-(2,2,2-trifluoroethyl)-1H-indazol-6-yl)cyclopropyl)imidazo[1,2-b]pyridazin-6-yl)pyrimidine-2,4(1H,3H)-dione] are 0.24 nM and 2 nM.
In the same order, the values of `O=c1[nH]cc(-c2cc([C@@H]3[C@@H](c4ccc(F)c(F)c4)C3(F)F)c3nccn3n2)c(=O)[nH]1` (racemic) [Example 552, 5-(8-((1S,3S)-3-(3,4-difluorophenyl)-2,2-difluorocyclopropyl)imidazo[1,2-b]pyridazin-6-yl)pyrimidine-2,4(1H,3H)-dione] are 15.2 nM and 2.76 nM.
The corresponding values for `O=c1[nH]cc(-c2cc([C@H]3C[C@@H]3c3ccccc3Cl)c3nccn3n2)c(=O)[nH]1` (racemic) [Example 555, 5-(8-((1S,2S)-2-(2-chlorophenyl)cyclopropyl)imidazo[1,2-b]pyridazin-6-yl)pyrimidine-2,4(1H,3H)-dione] are 267 nM and 13.3 nM.
In assay [1], `O=c1[nH]cc(-c2cc([C@H]3C[C@@H]3c3ccc(OC(F)F)cc3)c3nccn3n2)c(=O)[nH]1` (racemic) [Example 556, 5-(8-((1S,2S)-2-(4-(difluoromethoxy)phenyl)cyclopropyl)imidazo[1,2-b]pyridazin-6-yl)pyrimidine-2,4(1H,3H)-dione] had an EC50 of 14 nM. This molecule also returned an IC50 in assay [2] of 3.41 nM.
The corresponding values for `O=c1[nH]cc(-c2cc([C@H]3C[C@@H]3c3ccc(OCC(F)(F)F)cc3)c3nccn3n2)c(=O)[nH]1` (racemic) [Example 564, 5-(8-((1S,2S)-2-(4-(2,2,2-trifluoroethoxy)phenyl)cyclopropyl)imidazo[1,2-b]pyridazin-6-yl)pyrimidine-2,4(1H,3H)-dione] are 31.3 nM and 2.53 nM.
In the same order, the values of `O=c1[nH]cc(-c2cc([C@H]3C[C@@H]3c3ccc(Cl)nc3)c3nccn3n2)c(=O)[nH]1` (racemic) [Example 568, 5-(8-((1S,2S)-2-(6-chloropyridin-3-yl)cyclopropyl)imidazo[1,2-b]pyridazin-6-yl)pyrimidine-2,4(1H,3H)-dione] are 8.1 nM and 2.84 nM.
